Reference: ChEMBL document CHEMBL4765389, “Antimicrobial and anti-inflammatory activities of short dodecapeptides derived from duck cathelicidin: Plausible mechanism of bactericidal action and endotoxin neutralization” (Eur J Med Chem, 2020)
Values after ≈ are worked out from the molar mass of the structure shown. Active and inactive are the calls of the source. The rule behind the calls is not given here. Bridge positions count the residues as written; N and C are the ends. Square brackets hold non-standard residues; d marks the D form. Peptide text beside a SMILES is read from it. * marks the point of attachment. X1 = CC[C@H](C)CCCCC(=O)*; Dab = NCC[C@H](N)C(=O)O

Legend:
[1] = test system: RAW264.7; test: Antiinflammatory activity in mouse RAW264.7 cells assessed as neutralization of LPS binding by measuring LPS-FITC aggregation at 10 uM pretreated with LPS for 1 hr followed by compound addition and measured after 1 hr by flowcytometry analysis (reference value: 48.12 %); type: functional
[2] = test system: Lipopolysaccharide (LPS); test: Inhibition of Escherichia coli O111:B4 LPS aggregation assessed as increase in FITC-LPS dissociation at 100 uM by spectrofluorometry
[3] = test system: RAW264.7; test: Antiinflammatory activity in mouse RAW264.7 cells assessed as suppression of LPS binding by measuring LPS-FITC aggregation at 10 uM pretreated with LPS for 1 hr followed by compound addition and measured after 30 mins by flowcytometry analysis (reference value: 67.93 %); type: functional; settings: 0.5 h
[4] = test system: Candida albicans; test: Antifungal activity against Candida albicans KCTC 7121 assessed as reduction in fungal growth incubated for 24 hrs by CLSI based broth dilution method; type: functional; settings: read-out: MIC100
[5] = test system: Staphylococcus aureus; test: Antibacterial activity against methicillin-resistant Staphylococcus aureus CCARM 3089 assessed as reduction in bacterial growth incubated for 24 hrs by CLSI based broth dilution method; type: functional; settings: read-out: MIC100
[6] = Hemolytic activity in sheep RBC assessed as reduction in hemoglobin at 64 uM incubated for 1 hr; type: ADME, cell-based, Ovis aries, Erythrocyte; settings: sheep red blood cells (erythrocytes), read-out: Activity
[7] = test system: Saccharomyces cerevisiae; test: Antifungal activity against yeast assessed as reduction in fungal growth incubated for 24 hrs by CLSI based broth dilution method; type: functional; settings: read-out: MIC100
[8] = Cytotoxicity against mouse RAW264.7 cells assessed as reduction in cell viability at 20 uM incubated for 24 hrs by MTT assay; type: cell-based; settings: read-out: INH
[9] = test system: Erythrocyte; test: Hemolytic activity in sheep RBC assessed as reduction in hemoglobin incubated for 1 hr; type: ADME, cell-based, Ovis aries
[10] = (§1) Cytotoxicity against mouse NIH/3T3 cells assessed as reduction in cell viability at 20 uM incubated for 24 hrs by MTT assay; type: cell-based, NIH3T3; settings: NIH/3T3 cells, read-out: INH
[11] = Antibacterial activity against multidrug-resistant Pseudomonas aeruginosa CCARM 2109 assessed as reduction in bacterial growth incubated for 24 hrs by CLSI based broth dilution method; type: functional; settings: read-out: MIC100
[12] = test system: Staphylococcus aureus; test: Antibacterial activity against Staphylococcus aureus KCTC 1621 assessed as reduction in bacterial growth incubated for 24 hrs by CLSI based broth dilution method; type: functional; settings: read-out: MIC100
[13] = Therapeutic index, ratio of HC10 for sheep RBC to geometric mean MIC for gram positive bacteria; type: toxicity; settings: sheep red blood cells, read-out: TI
[14] = test system: Candida albicans; test: Antifungal activity against Candida albicans KCTC 7965 assessed as reduction in fungal growth incubated for 24 hrs by CLSI based broth dilution method; type: functional; settings: read-out: MIC100
[15] = Retention time of the compound by RP-HPLC method; type: physicochemical
[16] = test system: Bacteria; test: Antibacterial activity against Gram negative bacteria assessed as reduction in bacterial growth incubated for 24 hrs by CLSI based broth dilution method; type: functional; settings: read-out: MIC100
[17] = Therapeutic index, ratio of HC10 for sheep RBC to geometric mean MIC for gram negative bacteria; type: toxicity; settings: sheep red blood cells, read-out: TI
[18] = test system: Staphylococcus epidermidis; test: Antibacterial activity against Staphylococcus epidermidis KCTC 1917 assessed as reduction in bacterial growth incubated for 24 hrs by CLSI based broth dilution method; type: functional; settings: read-out: MIC100
[19] = test system: Escherichia coli; test: Antibacterial activity against Escherichia coli KCTC 1682 assessed as reduction in bacterial growth incubated for 24 hrs by CLSI based broth dilution method; type: functional; settings: read-out: MIC100
[20] = test system: Staphylococcus aureus; test: Antibacterial activity against methicillin-resistant Staphylococcus aureus CCARM 3095 assessed as reduction in bacterial growth incubated for 24 hrs by CLSI based broth dilution method; type: functional; settings: read-out: MIC100
[21] = test system: Salmonella typhimurium; test: Antibacterial activity against Salmonella typhimurium KCTC 1926 assessed as reduction in bacterial growth incubated for 24 hrs by CLSI based broth dilution method; type: functional, Salmonella enterica subsp. enterica serovar Typhimurium; settings: Salmonella enterica, read-out: MIC100
[22] = test system: Bacteria; test: Antibacterial activity against Gram positive bacteria assessed as reduction in bacterial growth incubated for 24 hrs by CLSI based broth dilution method; type: functional; settings: read-out: MIC100
[23] = Therapeutic index, ratio of HC10 for sheep RBC to geometric mean MIC for yeast; type: toxicity; settings: sheep red blood cells, read-out: TI
[24] = test system: Pseudomonas aeruginosa; test: Antibacterial activity against Pseudomonas aeruginosa KCTC 1637 assessed as reduction in bacterial growth incubated for 24 hrs by CLSI based broth dilution method; type: functional; settings: read-out: MIC100
[25] = Antibacterial activity against multidrug-resistant Pseudomonas aeruginosa CCARM 2095 assessed as reduction in bacterial growth incubated for 24 hrs by CLSI based broth dilution method; type: functional; settings: read-out: MIC100
[26] = Cytotoxicity against mouse RAW264.7 cells assessed as reduction in cell viability at 10 uM incubated for 24 hrs by MTT assay; type: cell-based; settings: read-out: INH
[27] = test system: Bacillus subtilis; test: Antibacterial activity against Bacillus subtilis KCTC 3068 assessed as reduction in bacterial growth incubated for 24 hrs by CLSI based broth dilution method; type: functional; settings: read-out: MIC100
[28] = Cytotoxicity against mouse NIH/3T3 cells assessed as reduction in cell viability at 10 uM incubated for 24 hrs by MTT assay; type: cell-based, NIH3T3; settings: read-out: INH
[29] = test system: Staphylococcus aureus; test: Antibacterial activity against methicillin-resistant Staphylococcus aureus CCARM 3090 assessed as reduction in bacterial growth incubated for 24 hrs by CLSI based broth dilution method; type: functional; settings: read-out: MIC100
[30] = test system: Enterococcus faecium; test: Antibacterial activity against vancomycin-resistant Enterococcus faecium ATCC 51559 assessed as reduction in bacterial growth incubated for 24 hrs by CLSI based broth dilution method; type: functional; settings: read-out: MIC100
[31] = test system: Erythrocyte; test: Hemolytic activity in sheep RBC assessed as reduction in hemoglobin at 256 uM incubated for 1 hr; type: ADME, cell-based, Ovis aries
[32] = test system: NIH3T3; test: as §1; type: cell-based; settings: nih3t3, 24 h, 20 µM
[33] = test system: Cell membrane; test: Induction of cell membrane permeability in Staphylococcus aureus KCTC 1621 assessed as cytoplasmic membrane depolarization at 2 times MIC by SYTOX dye based fluorescence assay; type: subcellular
[34] = test system: Cell membrane; test: Induction of cell membrane permeability in Staphylococcus aureus KCTC 1621 assessed as cytoplasmic membrane depolarization at 2 times MIC by DiSC3-5 dye based spectrofluorometry; type: subcellular
[35] = test system: NIH3T3; test: Cytotoxicity against mouse NIH/3T3 cells assessed as reduction in cell viability at 1.25 to 80 uM incubated for 24 hrs by MTT assay; type: cell-based; settings: nih3t3, 24 h, dose 1.25-80 µM
[36] = test system: Cell membrane; test: Induction of cell membrane permeability in Escherichia coli KCTC 1682 assessed as cytoplasmic membrane […] fluorescent signals at 2 times MIC measured after 1 hr by propidium iodide dye based flow cytometry analysis (reference value: 9.8 %); type: subcellular
[37] = test system: Cell membrane; test: Induction of cell membrane permeability in Escherichia coli KCTC 1682 assessed as […] at 2 times MIC by ONPG dye based spectrophotometry; type: subcellular
[38] = test system: RAW264.7; test: Cytotoxicity against mouse RAW264.7 cells assessed as reduction in cell viability at 1.25 to 80 uM incubated for 24 hrs by MTT assay; type: cell-based; settings: raw264.7, 24 h, dose 1.25-80 µM

Row | Compound | MIC [4] [µM] | MIC [7] [µM] | cytotoxicity at 24 h, 20 µM [8] [%] | HC10 [9] [µM] | MIC [11] [µM] | selectivity ratio [13] | MIC [14] [µM] | MIC [16] [µM] | selectivity ratio [17] | MIC [22] [µM] | selectivity ratio [23] | MIC [25] [µM] | MIC [30] [µM] | further results
1 | CC[C@H](C)CCCCC(=O)N[C@@H](CCN)C(=O)N[C@H](C(=O)N[C@@H](CCN)C(=O)N[C@H]1CCNC(=O)[C@H]([C@@H](C)O)NC(=O)[C@H](CCN)NC(=O)[C@H](CCN)NC(=O)[C@H](CC(C)C)NC(=O)[C@@H](Cc2ccccc2)NC(=O)[C@H](CCN)NC1=O)[C@@H](C)O (X1-[Dab]T[Dab][Dab][Dab][dF]L[Dab][Dab]T; lactam 4-C) | – | – | – | – | – | – | – | – | – | – | – | – | – | Activity [1]: 43.62%; inhibition [2]: inactive; Activity [3]: 23.97%
2 | H-KRFWQLVPLAIKIYRAWKRR-OH | 16 | 12 | < 10 | 5.1 | 16 | 0.4 | 8 | 12 | 0.4 | 11.4 | 0.4 | 16 | 16 | MIC [5]: 16 µM; hemolysis at 1 h, 64 µM [6]: 40%; cytotoxicity at 24 h, 20 µM [10]: < 10%; MIC [12]: 8 µM; Retention_time [15]: 26.8 min; MIC [18]: 8 µM; MIC [19]: 8 µM; MIC [20]: 8 µM; MIC [21]: 4 µM; MIC [24]: 16 µM; cytotoxicity at 24 h, 10 µM [26]: 40%; MIC [27]: 8 µM; cytotoxicity at 24 h, 10 µM [28]: 40%; MIC [29]: 16 µM; Activity [31]: Non-Toxic
3 | CC[C@H](C)[C@H](NC(=O)CN)C(=O)NCC(=O)N[C@@H](C)C(=O)N[C@H](C(=O)N[C@@H](CC(C)C)C(=O)N[C@@H](CCCCN)C(=O)N[C@H](C(=O)N[C@@H](CC(C)C)C(=O)N[C@H](C(=O)N[C@H](C(=O)NCC(=O)N[C@@H](CC(C)C)C(=O)N1CCC[C@H]1C(=O)N[C@@H](C)C(=O)N[C@@H](CC(C)C)C(=O)N[C@H](C(=O)N[C@@H](CO)C(=O)N[C@@H](Cc1c[nH]c2ccccc12)C(=O)N[C@H](C(=O)N[C@@H](CCCCN)C(=O)N[C@@H](CCCNC(=N)N)C(=O)N[C@@H](CCCCN)C(=O)N[C@@H](CCCNC(=N)N)C(=O)N[C@@H](CCC(N)=O)C(=O)N[C@@H](CCC(N)=O)C(N)=O)[C@@H](C)CC)[C@@H](C)CC)[C@@H](C)O)[C@@H](C)O)C(C)C)C(C)C [MELITTIN] | 16 (≈ 45.5 µg/mL) | 16 (≈ 45.5 µg/mL) | < 10 | 1 | 32 (≈ 91.1 µg/mL) | 0.1 | 16 (≈ 45.5 µg/mL) | 17.2 (≈ 49 µg/mL) | 0.1 | 16 (≈ 45.5 µg/mL) | 0.1 | 32 (≈ 91.1 µg/mL) | 16 (≈ 45.5 µg/mL) | Activity [32]: Toxic; Activity [33]: Active; Activity [34]: Active; Activity [35]: Toxic; Activity [36]: 71.9%; Activity [37]: Active; Activity [38]: Toxic
